Test results reported in ChEMBL document CHEMBL1772974, “Optimization of potent, selective, and orally bioavailable pyrrolodinopyrimidine-containing inhibitors of heat shock protein 90. Identification of development candidate …” (J Med Chem, 2011).
In brackets after ≈: the same amount, converted by molar mass.

Tests used:
in vitro = conditions: human, Caco-2
[1] = Oral bioavailability in Beagle dog at 0.5 mg/kg administered as suspension in 0.5% methylcellulose; assay type: ADME, organism-based, Canis lupus familiaris; conditions: in vivo
[2] = Volume of distribution at steady state in Han Wistar rat at […], iv; assay type: ADME, organism-based; set-up: dose 2.5 mg/kg, route intravenous; conditions: in vivo, read-out: Vdss
[3] = Oral bioavailability in Han Wistar rat at 10 mg/kg administered as suspension in 0.5% methylcellulose; assay type: ADME, organism-based; conditions: in vivo
[4] = Solubility of the compound; assay type: physicochemical
[5] = Volume of distribution at steady state in Beagle dog at 0.5 mg/kg, iv; assay type: ADME, organism-based, Canis lupus familiaris; set-up: dose 0.5 mg/kg, route intravenous; conditions: in vivo, read-out: Vdss
[6] = Permeability from basolateral to apical side of MDCK cells; assay type: ADME, cell-based, Canis lupus familiaris; conditions: dog, read-out: permeability
[7] = Oral bioavailability in Beagle dog at 0.5 mg/kg administered as solution in 40% PEG400 in saline; assay type: ADME, organism-based, Canis lupus familiaris; conditions: in vivo
[8] = Permeability from apical to basolateral side of MDCK cells; assay type: ADME, cell-based, Canis lupus familiaris; conditions: dog, read-out: permeability
[9] = Oral bioavailability in Han Wistar rat at 10 mg/kg administered as solution in 40% PEG400 in saline; assay type: ADME, organism-based; conditions: in vivo
[10] = Toxicity in human A2058 cells xenografted po dosed nu/nu athymic mouse; assay type: organism-based; conditions: in vivo

For `Nc1nc2c(c(-c3c(Cl)cc(Cl)cc3OCCn3cccn3)n1)CN(C(=O)NC1CCC1)C2`, the Papp A→B (in vitro) was 4.7 ×10⁻⁶ cm/s.

Work on `Nc1nc2c(c(-c3c(Cl)cc(Cl)cc3OCCn3cccn3)n1)CN(C(=O)NC1CC1)C2` yielded a Papp A→B (in vitro) of 0.5 ×10⁻⁶ cm/s.

In the case of `Nc1nc2c(c(-c3c(Cl)cc(Cl)cc3OCCn3cccn3)n1)CN(C(=O)NC1CC(F)(F)C1)C2`, the Papp A→B (in vitro) is reported as 1.5 ×10⁻⁶ cm/s.

Molecule `Nc1nc2c(c(-c3c(Cl)cc(Cl)cc3OCCn3cccn3)n1)CN(C(=O)NC13CC(C1)C3)C2` has a Papp A→B (in vitro) of 5 ×10⁻⁶ cm/s.

With `Nc1nc2c(c(-c3c(Cl)cc(Cl)cc3OCCn3cccn3)n1)CN(C(=O)NCC(F)F)C2` the Papp A→B (in vitro) was 1.2 ×10⁻⁶ cm/s.

`Nc1nc2c(c(-c3c(Cl)cc(Cl)cc3OCCn3cccn3)n1)CN(C(=O)NCC(F)(F)F)C2` showed a Papp A→B (in vitro) of 0.96 ×10⁻⁶ cm/s.

`Cc1cc(Cl)cc(OCCn2cc(F)cn2)c1-c1nc(N)nc2c1CN(C(=O)NCC(C)(F)F)C2` showed a bioavailability [1] of 58%, a Vd [2] of 9.6 L/kg and a bioavailability [3] of 15%. The solubility [4] was 200 µM (≈ 102 µg/mL), the Vd [5] was 8 L/kg and the Papp B→A [6] was 11 ×10⁻⁶ cm/s. The bioavailability [7] was 63%, the Papp A→B [8] was 2.4 ×10⁻⁶ cm/s and the bioavailability [9] was 19%.

Work on `CO[C@H]1/C=C\C=C(/C)C(=O)NC2=CC(=O)C(NCCN(C)C)=C(C[C@@H](C)C[C@H](OC)[C@H](O)[C@@H](C)/C=C(\C)[C@@H]1OC(N)=O)C2=O` [ALVESPIMYCIN] yielded an MTD [10] of 10 mg/kg.
